The values that follow come from patent US20220089602A1, “COMPOUNDS THAT INDUCE FERROPTIC CELL DEATH” (The Board of Trustees of the University of Illinois, priority 2019, published 2022).

The subject of one series is E. coli. In words: Antibacterial activity (MIC). In kind it is cell-based. To be noted: Escherichia coli; gram-negative (E. coli).
For another series, the system named is S. aureus. In words: Antibacterial activity (MIC). In kind it is cell-based. The following applies: Staphylococcus aureus; gram positive (S. aureus).
In series [1] the test system is ES-2 cells. Kind of series: Confocal microscopy competition with fluorescent analogue P30. In kind it is cell-based. To be noted: pretreatment at 3× IC50 for 30 min, then P30 (5 μM). On the procedure: ES-2 cells (3×10^5 cell) were attached overnight in […] petri dish plates containing 2 ml of RPMI media. Prior to imaging, cells were stained for 30 min with Mitotracker Red CMXRoss at 100 nM final concentration. Upon media replacement, samples were pre-treated with 3× IC50 of ferroptocide, P27, L1, QQ1 for 30 min followed by treatment with 5 μM P30 for an additional 30 min and a PBS wash. PBS or phenol free media was added to each dish and cells were stained with Hoechst 33342 (1 μg/mL).

Series [2] deals with 4T1 triple negative breast cancer cells. Kind of series: 4T1 syngeneic subcutaneous tumor model, immunocompetent mice. In kind it is in vivo. The following applies: 50 mg/kg i.p., twice a week, five doses, Balb/c. On the procedure: (§1) The protocol was approved by the IACUC at the University of Illinois at Urbana-Champaign (Protocol Number: 17192). 9-week old female Balb/C or SCID mice (Charles River) were lightly sedated with i.p. xylazine/ketamine/saline solution. Following sedation, 4T1 murine breast cancer cells suspended in chilled HBSS (100 μL of 4×10^6 cells/mL) were injected subcutaneously into the right flank of shaved and sedated mice using an insulin syringe. On day 8 after inoculation, mice were randomized with 7 mice per group for vehicle or ferroptocide treatment. Vehicle (PEG400) or ferroptocide (50 mg/kg) was administered intraperitoneally as a PEG400 solution twice a week for 5 times. Tumor measurements were performed every 3 or 4 days using a caliper and tumor volume was calculated using the equation (0.5×l×w^2). On day 23 after the 4T1 cells inoculation, mice were sacrificed. Tumors were then surgically removed, and their mass was measured.

For series [3] the test system is unchanged. Kind of series: 4T1 subcutaneous tumor model, immunocompromised mice. In kind it is in vivo. To be noted: 50 mg/kg i.p., twice a week, five doses, SCID; listed as ferroptocide. On the procedure:
as §1

The nature of series [4]: In vitro glutathione assay (LC-MS). To be noted: 100 μM compound, 5 mM glutathione, PBS, 37° C. In kind it is physicochemical. On the procedure: To an eppendorf tube added, 245 μL of 1×PBS, 5 μL of 10 mM DMSO stock of ferroptocide or P23 and 250 μL of reduced GSH (5 mM final concentration). Reactions were vortexed briefly and incubated at 37° C. Adduct formation was monitored at the indicated time points (0, 0.5, 1, 2, 3, 24 hr) by mixing an aliquot of 50 μL from the reaction mixture with 50 μL of MeOH before LC/MS analysis.

For another series, the system named is red blood cells. In words: Hemolysis assay. In kind it is cell-based, human. To be noted: 2 hr treatment with 333 μM. On the procedure:
Whole human blood in citrate phosphate dextrose was obtained from Bioreclamation LLC, stored at 4° C. and used before expiration date. 100 μL of whole blood was combined with 500 μL saline (0.9% NaCl) and centrifuged for 5 min at 300×g. The supernatant was carefully removed from the erythrocyte pellet and the liquid was discarded. Washed pellet 3× in 500 μL saline. The erythrocyte pellet was resuspended in 800 μL of Red Blood Cell Buffer (10 mM Na2HPO4, 150 mM NaCl, 1 mM MgCl2, pH 7.4). To a 0.5 mL eppendorf tube or a PCR plate was added 1.0 μL of 30× compound in DMSO and 19 μL RBC Buffer. For negative controls, 1.0 μL DMSO was combined with 19 μL RBC buffer. For positive controls, either 20 μL MilliQ H2O or 1.0 μL 30% Triton X-100 were combined with 19 μL RBC Buffer. Tubes or plates were briefly centrifuged. Next, 10 μL of washed erythrocyte suspension was added to each tube, then sealed. After incubation at 37° C. for 2 h, samples were centrifuged for 5 min at 300×g, and 20 μL of supernatant was carefully removed and transferred to wells of a clear flat-bottomed 384-well plate. Absorbance was measured at 540 nm. The data were plotted as compound concentration versus percent hemolysis, and fitted to OriginPro (OriginLab, Northampton, Mass.).

Another series deals with T1, thioredoxin (Homo sapiens, UniProt P10599).
T1 construct: endogenous in cells
Kind of series: Thioredoxin activity assay in cell lysate. In kind it is cell-based. To be noted: 30 min treatment, HCT 116 cells; versus PMX464 and PX-12 (50 μM). On the procedure:
HCT 116 cells (1×10^6 cells/flask) were treated with DMSO, 10 μM ferroptocide, 50 μM PMX464, or 50 μM PX-12 for 30 min. Cells were harvested by centrifugation, resuspended in the assay buffer and lysed via sonication. For each condition, 20 μg of cell lysate was used to measure the activity thioredoxin activity following manufacturer' protocol (Cayman Chemical, Fluorescent Thioredoxin Activity Assay kit #20039) in a 96-well black-walled plate. For in vitro studies, human thioredoxin (10 μL of 0.2 μM solution) was used in addition to thioredoxin reductase (10 μL of 1.0 μM solution), 1 μl of DMSO, ferroptocide, […], or PX-12 at indicated concentrations, 5 μL of NADPH (diluted according to manufacturer's instructions), and assay buffer to a final volume of 75 μL. The plate was incubated at 37° C. for 30 min followed by immediate addition of 20 μL fluorescent substrate per each well (diluted as instructed in the assay kit). Fluorescence was monitored over 1 hr at 520 nm after excitation at 480 nm in a SpectraMax M3 (Molecular Devices) instrument at 37° C.

The test system of series [5] is ES-2 cells. In words: Mitochondrial ROS production (MitoSOX Red). The following applies: 1 hr. In kind it is cell-based. On the procedure:
ES-2 cells (1×10^5 cells/mL) were plated in 12-well plates and allowed to attach overnight. Cells were treated for 1 hr with DMSO, 10 and 25 μM ferroptocide, 5 μM IB-DNQ, and 10 μM rotenone. Cells were washed with HBSS and incubated in the dark for 10 min with 5 μM MitoSOX Red probe. Cells were then washed 2× with HBSS and harvested at 1000×g, 3 min. After resuspension in 500 μl HBSS buffer, samples were analyzed with flow cytometry to record ten thousand events per sample in the PE channel in BD LSR II Flow Cytometer (BD Bioscience). FCS express V6 De Novo software was used to generate the histogram.

T1 sequence (P10599 whole entry): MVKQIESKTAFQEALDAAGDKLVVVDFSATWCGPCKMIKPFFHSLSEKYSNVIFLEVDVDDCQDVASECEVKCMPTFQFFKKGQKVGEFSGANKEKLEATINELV

Broadly, the MIC is the lowest concentration that inhibits growth of the organism. A higher MIC goes with a less susceptible organism. On to `C[C@@H]1CC[C@@]23C[C@H](O)C(=O)[C@@]2(O)[C@]1(C)[C@H](OC(=O)CCl)C[C@@H](C1=CCn2c(=O)n(-c4ccccc4)c(=O)n2C1)[C@@H]3C` [Compound P18, ferroptocide], for which the minimal inhibitory concentration (MIC) against E. coli and with S. aureus was over 64 µg/mL throughout. In addition, the “competition of P30 staining” value in the series with ES-2 cells [1] was “competed away”. Further, the “effect on subcutaneous 4T1 tumor growth (in words)” value in [2] is recorded as “inhibits subcutaneous 4T1 tumor growth”; in [3], “no effect”. Besides, the “tumor growth retardation (tumor volume)” value in [2] (compared to vehicle) is reported as 40%. Moreover, in series [4], the “reactivity with excess glutathione (in words)” value is on record as “reacts slowly”. Moreover, the “Compound remaining (%)” value in series [4] (0.5 hr) is 95.1%; in [4] (1 hr) it was 81.8%; in series [4] (2 hr, listed as Ferroptocide), 66.8%; in series [4] (2 hr, listed as ferroptocide), 67%; in series [4] (3 hr) it was 61.9%; in series [4] (24 hr), 27.5%. Further, the “GSH-Ferroptocide adduct (%)” value in series [4] (0.5 hr) stood at 4.9%; in [4] (1 hr), 18.2%; in series [4] (2 hr), 33.2%; in [4] (3 hr), 38.1%; in series [4] (24 hr), 72.5%. The hemolytic activity result is given as “no hemolytic activity” in the series on red blood cells (listed as Ferroptocide) and “Lack of hemolytic activity” with red blood cells (listed as ferroptocide). Also, the “thioredoxin activity in cell lysate” value on thioredoxin is “significantly reduced the activity of thioredoxin”. In addition, the “mitochondrial ROS” value in the series on ES-2 cells [5] was “increase of mitochondrial ROS”.
